Measurements as given in US6042841A, “Cosmetic method of treating skin” (Unilever Home & Personal Care USA Division of Conopco, Inc., priority 1998, dated 2000).

Experiments:
Assay type in all cases: cell-based
procollagen-I = test: Dot blot assay for procollagen-I synthesis in human dermal fibroblasts
Description: Primary human foreskin fibroblasts at passage 2 (P2) were seeded into 12-well plates at 10000 cells/cm^2 and maintained for 24 hours in an atmosphere of 5% carbon dioxide and 4% oxygen in Dulbeccos Modified Eagles Medium (DMEM) supplemented with 10% foetal calf serum. After this time the cells were washed with serum free DMEM and then incubated in fresh serum free DMEM for a further 60 hours. The fibroblast monolayers were then washed again with serum free DMEM. Test reagents and vehicle controls were added to the cells in triplicate in a final volume of 0.4 ml/well fresh serum free DMEM and incubated for a further 24 hours. This fibroblast conditioned medium was either analysed immediately or snap frozen in liquid nitrogen and stored at -70° C. for future analysis. The cells were then counted and data from the dot-blot analysis subsequently standardised to cell number.
Samples of conditioned medium from dermal fibroblasts treated with vehicle (as a control) or test reagents were supplemented with 20 mM dithiothreitol (1:10 dilution of 200 mM stock solution) and 0.1% sodium dodecylsulphate (1:100 dilution of 10% stock solution), mixed well and then incubated at 75° C. for 2 minutes. […]
In order to normalise the results the effects of the test substance was determined relative to a vehicle treated control value of 100 arbitrary units. […]

PGE2 [1] = test: Keratinocyte PGE2 assay (basal release); conditions: 0.1 and 1 μM; 1 way ANOVA, p<0.05
Description: This was then replaced with KGM without hydrocortisone for 24-48 hours. No petroselinic acid was added to the control cells. […] At the end of the incubation the medium was harvested and assayed for the basal release of the pro-inflammatory PGE2 by enzyme-linked immuno assay using a commercial PGE2 kit (Amersham, Buckinghamshire, England).
The anti-inflammatory potential of the test compounds were assessed by the ability of the compounds to reduce the basal levels of secreted PGE2 as compared to the control. […]

keratinocytes = test: Keratinocyte viability by neutral red up-take in PGE2 assay; conditions: at the concentrations tested
Description: After incubating for 24 hours the medium was removed and the viability determined by the Neutral Red method.
The cells were then tested for viability by the neutral red up-take method described in example 2 above.

PGE2 [2] = test: Prostaglandin E2 assay, PMA-induced PGE2 production in human skin fibroblasts; conditions: for PGE2: N 4, p < 0.001 vs PMA-treated
Description: Intracellular adhesion molecules (ICAM) and PEG2 production by human skin fibroblasts can be induced by the inflammatory stimulus PMA (phorbal myristate acetate). PMA represents an external stressor which induces oxidative stress and inflammatory responses in cells. This model is used to model inflammation in vivo.
Primary human foreskin fibroblasts at passage 2 (P2) were seeded into 96-well plates at 10000 cells/well and maintained for 24 hours in an atmosphere of 5% carbon dioxide in Dulbeccos Modified Eagles Medium (DMEM) supplemented with 10% foetal calf serum. […] Phorbal myristate acetate (PMA) (Sigma) was added to the media and the cells incubated for a further 24 hours. […] The fibroblasts/media were then analysed as described below immediately or snap frozen in liquid nitrogen and stored at -70° C. for future analysis. The cells were then counted and data from the dot-blot analysis subsequently standardised to cell number.
Prostaglandin E2 (PGE2) assay: Volumes of 50 μl culture medium were taken for PGE2 assay after gently shaking the culture plate. PGE2 levels in the medium were determined with a Biotrak PGE2 immunoassay kit (Amersham, UK). The assay is based on the competition between unlabelled PGE2 in the sample and a fixed quantity of horseradish peroxidase labelled PGE2 for a limited amount of fixed PGE2 specific antibody. Concentrations of unlabelled sample PGE2 are determined according to a standard curve which was obtained at the same time.

Q: Which activity at 10 µM (procollagen-I; Homo sapiens, Fibroblast, 10 μM, 24 hours, n = 3, read-out: Procollagen-I synthesis relative to vehicle treated control value of 100) does the source give for `CCCCCCCCCCC/C=C\CCCCC(=O)O` [Petroselinic Acid, petroselinic acid] here?
A: 118 ± 8.6%

Q: What about the “procollagen-I synthesis (in words)” value (procollagen-I; compared to the control) of the same compound?
A: significantly upregulates

Q: And the “release of PGE2 from unstimulated keratinocytes (in words)” value (PGE2 [1])?
A: significantly (p<0.05) reduced

Q: What about the “Cell viability of keratinocytes (in words)” value (keratinocytes) of the same compound?
A: not found to be adversely effected

Q: And the PGE2 (PGE2 [2]; PMA + PA (0.1 uM))?
A: 500 ± 127 pg/mL

Q: And the PGE2 (PGE2 [2]; PMA + PA (1 uM))?
A: 486 ± 93 pg/mL

Q: And the PGE2 (PGE2 [2]; PMA + PA (10 uM))?
A: 233 ± 139 pg/mL

Q: What about the PGE2 (PGE2 [2]; PMA + PA (100 uM)) of the same compound?
A: 117 ± 39 pg/mL

Q: What about the “inflammatory response as measured by PGE2 production (in words)” value (PGE2 [2]; PMA-challenged, even at 0.1 μm (so in the source)) of the same compound?
A: dramatically reduces the inflammatory response
